Assay results from patent US20230346817A1, “COMPOSITION AND USE OF SGLT-2 INHIBITOR AND ANGIOTENSIN RECEPTOR BLOCKERS” (Beijing Creatron Institute of Pharmaceutical Research Co. …, priority 2020, published 2023).

Experiment: Related substances of active ingredient A, samples placed at 50° C. for 10 days
Format: physicochemical
Settings: mixed powders
Procedure: The raw and auxiliary materials were weighed based on the formulation amount and mixed well. The mixed powder of each example was wrapped separately in a clean weighing paper, sealed in an aluminum foil bag, and placed at 50° C. for 10 days. Samples were then taken, determined for related substances and compared with the comparative example.

**Q.** For `CCOc1ccc(Cc2cc([C@@H]3O[C@H](CO)[C@@H](O)[C@H](O)[C@H]3O)ccc2Cl)cc1` [active ingredient B, Dapagliflozin], which “Related substances of active ingredient B after placed under the influencing factor” value is on record?
**A.** no increase in impurities
